Experimental data reported in PMC6149849, “Cymantrenyl-Nucleobases: Synthesis, Anticancer, Antitrypanosomal and Antimicrobial Activity Studies” (Molecules : A Journal of Synthetic Chemistry and Natural …, 2017).
Read-outs that look alike come from different tables or passages of the source.

Key:
[1] = tested on: MCF-7 (hormone-responsive breast adenocarcinoma); test: MTT cytotoxicity assay, MCF-7; type: cell-based, human
Experimental: (§5) Anticancer activity of cymantrenes was determined using a panel of human cancer cell lines that were derived from solid tumors. […] The inhibitory effect of cymantrene derivatives on cell proliferation and growth was determined based on survival curves and was expressed as IC50 values (concentration required to achieve a 50% decrease in cell viability when compared to the viability of untreated control cells) calculated using GraphPad Prism 4.02 software for Windows (GraphPad Software, San Diego, CA, USA). Cell viability was determined by the MTT microplate spectrophotometric cytotoxicity test.
(§6) Cells were grown as a monolayer in DMEM growth medium, supplemented with 10% FBS, penicillin (10 U/mL) and streptomycin (50 μg/mL), under standard conditions (37 °C, 5% CO2 and 95% air, 100% humidity) and periodically checked for Mycoplasma contamination.
(§7) The cytotoxicity of cymantrene derivatives was evaluated by the MTT microplate methods as described elsewhere [67] by incubating the cells with increasing concentrations of tested compounds for 24 h. Briefly, 0.1 mL of logarithmically growing cells were seeded in a 96-well microplate (5 × 10^4 cells/well) a day before the experiments and after 24 h of culture, tested compounds, dissolved in DMSO, and diluted in culture medium, were added. […] After further incubation for 24 h, the medium was replaced with fresh medium and the cells were allowed to grow for additional 48 h. Then, the medium was aspirated and 0.05 mL of MTT (final concentration of 5 mg/mL medium) added to each well, and the cells were incubated for further 4 h. The absorbance of the product, resulting from the MTT reduction, was read with a microplate reader at 545 nm. The percentage of viable cells was calculated by comparing the absorbance of treated cells with that of the untreated control cells (taken as 100%). The IC50 concentration of each compound was calculated from the cell survival curves using GraphPad Prism 4.02 software for Windows (GraphPad Software, San Diego, CA, USA).

[2] = tested on: E. coli ATCC BAA-198 (ESBL); test: Antibacterial liquid microdilution (CLSI M07-A8); type: cell-based, Escherichia coli; settings: 18 to 24 h
Experimental: (§1) Organometallic compounds play an increasingly important role in the search for new antibacterial agents. We, therefore, thought to investigate also the bactericidal activity of the newly synthesized cymantrenes 1–7, compound C and CymH. The antibacterial activity of the compounds was tested against Gram-positive methicillin-sensitive Staphylococcus aureus (MSSA), methicillin-resistant S. aureus (MRSA), vancomycin-intermediate S. aureus (VISA), S. epidermidis, and Gram-negative Escherichia coli bacterial strains, and expressed as minimal inhibitory concentration (MIC) values (Table 3).
(§2) The antibacterial activity of CymH, 1–7 and C and the reference drugs penicillin G and polymyxin B was tested by the liquid microdilution method under standard conditions using twofold dilution series, as described in the Clinical and Laboratory Standards Institute (CLSI), reference method M07-A8, and expressed as minimal inhibitory concentration (MIC) values. A panel of Gram-positive bacterial strains, S. aureus ATCC® 29213 (sensitive to methicillin, (MSSA)), S. aureus ATCC® 43300 (resistant to methicillin, (MRSA)), S. aureus ATCC 700787™ (intermediate to vancomycin, (VISA)), and S. epidermidis ATCC 12228™, and one Gram-negative, strain E. coli ATCC BAA-198™ (ESBL) were used. In addition, four clinical isolates of S. aureus (MSSA and MRSA) and two clinical isolates of S. epidermidis that were collected from different patients at the Medical University of Warsaw, Poland, were also tested. The bacterial cells were cultivated on tryptic soy agar (TSA) and nutrient agar (NA), according to ATCC recommendations. All of the strains were incubated at 37 °C. Tested compounds were dissolved in DMSO and then serially diluted twofold with cation-adjusted Mueller-Hinton broth (CAMHB). Then, 95 µL of the dilutions were dispensed into microdilution sterile plates (Mar-Four), followed by the addition of 5 µL of bacteria inoculum containing 5 × 10^4 CFU/mL. The final concentrations of the compounds ranged from 512 to 2 µg/mL. Each compound was tested in triplicate, and Penicillin G (8–0.15 µg/mL) and Polymyxin B (256–0.0625 µg/mL) were used as controls. The plates were incubated at 37 °C for 18 to 24 h depending on the bacterial strain. Thereafter, the absorbance was measured at λ = 540 nm and λ = 595 nm using a Spectrostar Omega microplate reader (BMG Labtech, Offenburg, Germany). The MIC value was defined as the lowest concentration of a compound that reduced the growth by 100%.

[3] = tested on: SKOV-3 cells; test: Autophagy (acidic vesicular organelles, AVOs), acridine orange staining; type: cell-based, human; settings: SKOV-3, IC50 concentrations 24 h, then 0, 24 or 48 h drug-free
Experimental: (§3) To determine the mode of cell death that was triggered by cymantrene derivatives, appropriately stained SKOV-3 cells were evaluated for morphological changes using fluorescence microscopy. For evaluation of apoptosis and autophagy, cells were stained with Hoechst 33258/propidium iodide to distinguish between live, apoptotic and necrotic cells and reveal condensed chromatin and apoptotic bodies (a hallmark of apoptosis), and with acridine orange to detect the development of acidic vesicular organelles (AVOs—a hallmark of autophagy).
(§4) One day prior to the experiments, cells were seeded at the appropriate density into 35 mm diameter dishes. […] At the end of incubation, the medium was aspirated, the cell monolayer was washed twice with pre-warmed PBS, and fresh medium was added. The cells were cultured in drug-free medium for an additional 24 or 48 h to enable them to recover after the exposure to the compounds and to repair any induced damages.
The ability of tested compounds to induce autophagosome formation inside cells (the process associated with the induction of autophagy) was evaluated by microscopic examination of the morphology of cells stained with acridine orange (AO).

[4] = tested on: HepG2 (hepatocellular carcinoma); test: MTT cytotoxicity assay, HepG2; type: cell-based, human
Experimental: as §5, §6, §7

[5] = tested on: S. aureus ATCC 29213 (MSSA); test: Antibacterial liquid microdilution (CLSI M07-A8); type: cell-based, Staphylococcus aureus; settings: 18 to 24 h
Experimental: as §1, §2

[6] = tested on: S. aureus ATCC 700787 (VISA); test: Antibacterial liquid microdilution (CLSI M07-A8); type: cell-based, Staphylococcus aureus; settings: 18 to 24 h
Experimental: as §1, §2

[7] = tested on: S. aureus ATCC 43300 (MRSA); test: Antibacterial liquid microdilution (CLSI M07-A8); type: cell-based, Staphylococcus aureus; settings: 18 to 24 h
Experimental: as §1, §2

[8] = tested on: SKOV-3 cells; test: Apoptotic/necrotic cell death, Hoechst 33258/propidium iodide staining, fluorescence microscopy; type: cell-based, human; settings: for increase of apoptotic cells compared to untreated control cells: SKOV-3, 24 h treatment with IC50 concentrations, post-treatment 24 and 48 h; for apoptotic cell fraction predominantly increased: SKOV-3, IC50 concentrations
Experimental: as §3, §4
Quantitative analysis of morphological changes that are associated with apoptosis, necrosis, and autophagy were assessed using a fluorescence microscope (Olympus IX70, Tokyo, Japan) at 400× magnification, as described elsewhere. At the indicated time points, cells were washed with PBS, trypsinized, and centrifuged at 1000 rpm (fixed angle rotor, 72× g) for 5 min at 37 °C. The supernatant was removed and the cell pellet (100 µL) was transferred to the Eppendorf tube, mixed with Ho33258 (2 µL, 0.13 mM) and PI (2 µL, 0.23 mM), and incubated for 5 min in the dark at room temperature. At least 300 stained cells were counted in triplicate in each of the three independent experiments. Cells were classified as live, apoptotic, or necrotic on the basis of their morphological and staining characteristics, and each fraction was related to the total cell number.

[9] = tested on: U87-MG (glioblastoma); test: MTT cytotoxicity assay, U87-MG; type: cell-based, human
Experimental: as §5, §6, §7

[10] = tested on: MDA-MB-231 (triple negative breast adenocarcinoma); test: MTT cytotoxicity assay, MDA-MB-231; type: cell-based, human
Experimental: as §5, §6, §7

[11] = tested on: S. epidermidis ATCC 12228; test: Antibacterial liquid microdilution (CLSI M07-A8); type: cell-based, Staphylococcus epidermidis; settings: 18 to 24 h
Experimental: as §1, §2

[12] = tested on: bloodstream forms of T. brucei clone 427-221a; test: Trypanocidal assay, resazurin viability assay; type: cell-based, Trypanosoma brucei; settings: for GI50: 50% growth inhibition; for MIC and GI50 ratios of cytotoxic to trypanocidal activities: HL-60 / T. brucei; for MIC: concentration at which all cells were killed, determined microscopically; for Selectivity GI50 Ratio / Selectivity MIC Ratio: ratio of cytotoxic (HL-60) to trypanocidal (T. brucei) activity
Experimental: All of the cultures were maintained at 37 °C in a humidified atmosphere containing 5% of CO2. Toxicity assays were performed, as previously described, with some modifications. In brief, trypanosomes and HL-60 cells were seeded at an initial cell density of 10^4/mL and 5 × 10^4/mL, respectively, in 96-well plates in a final volume of 200 μL culture medium containing various concentrations of test compounds dissolved in 100% DMSO. […] The controls contained DMSO alone. In all of the experiments, the final DMSO concentration was 0.9%. After 24 h incubation, 20 µL of a 0.5 mM resazurin solution prepared in PBS was added and the cultures were incubated for a further 48 h. Resazurin is a vital dye that, when being reduced by living cells, changes its colour from blue to pink. Thus, by measuring absorbance, the proliferation of cells can be easily determined. The change in absorbance was read with a microplate reader using a test wavelength of 570 nm and a reference wavelength of 630 nm. GI50 values were calculated by linear interpolation according to the method described by Huber and Koella. MIC values were determined microscopically.

[13] = 24 h incubation, MTT, means ± SEM, read-out: cytotoxicity IC50, MCF-7
[14] = 24 h incubation, MTT, means ± SEM, read-out: cytotoxicity IC50, HepG2
[15] = 24 h incubation, MTT, means ± SEM, read-out: cytotoxicity IC50, U87-MG
[16] = 24 h incubation, MTT, means ± SEM, read-out: cytotoxicity IC50, MDA-MB-231

Structure (SMILES)	IC50 [1]	MIC, E. coli ATCC BAA-198 [2]	induction of autophagy (cells containing AVOs) [3]	IC50 [4]	MIC, S. aureus ATCC 29213 (MSSA) [5]	MIC, S. aureus ATCC 700787 (VISA) [6]	MIC, S. aureus ATCC 43300 (MRSA) [7]	increase of apoptotic cells compared to untreated control cells [8]	apoptotic cell fraction predominantly increased [8]	IC50 [9]	IC50 [10]	MIC, S. epidermidis ATCC 12228 [11]	GI50 [12]	MIC [12]	Selectivity GI50 Ratio [12]	Selectivity MIC Ratio [12]	other results
CCC(=O)[C]12[CH]3[CH]4[CH]5[CH]1[Mn]4532.[C-]#[O+].[C-]#[O+].[C-]#[O+] (centres unmarked) [Compound 7, propionylocymantrene]	> 150 µM	>512 µg/mL	greatest autophagic changes	110 ± 2.48 µM	>512 µg/mL	>512 µg/mL	>512 µg/mL	9 fold	late-apoptotic cell fraction	83.6 ± 1.18 µM	63 ± 1.32 µM	>512 µg/mL	–	–	–	–	–
O=C(CCn1cc(F)c(=O)[nH]c1=O)[C]12[CH]3[CH]4[CH]5[CH]1[Mn]4532.[C-]#[O+].[C-]#[O+].[C-]#[O+] (centres unmarked) [Compound 1]	70.5 ± 2.52 µM	>512 µg/mL	Less induction of autophagy	114 ± 2.72 µM	64 µg/mL	32 µg/mL	32 µg/mL	6 fold	–	64.5 ± 3.22 µM	27.9 ± 1.11 µM	8 µg/mL	3.02 ± 0.14 µM	10 µM	11.0	10	MIC and GI50 ratios of cytotoxic to trypanocidal activities [12]: 7–13
O=[C]=[Mn](=[C]=O)(=[C]=O)[CH]1C=CC=C1 [CymH, tricarbonyl(η^5-cyclopentadienyl)manganese, reference compound]	–	>512 µg/mL	greatest autophagic changes	–	>512 µg/mL	>512 µg/mL	>512 µg/mL	–	–	–	–	>512 µg/mL	44.6 ± 12.3 µM	100 µM	>2.2	>1	IC50 [1, 13]: 86 ± 1.3 µM; IC50 [4, 14]: 74.7 ± 3.73 µM; IC50 [9, 15]: 84.4 ± 4.22 µM; IC50 [10, 16]: 68.6 ± 1.74 µM
Nc1ncnc2c1ncn2CCC(O)[C]12[CH]3[CH]4[CH]5[CH]1[Mn]4532[P](c1ccccc1)(c1ccccc1)c1ccccc1.[C-]#[O+].[C-]#[O+] (racemic) [Compound 5]	–	>256 µg/mL	Less induction of autophagy	–	>256 µg/mL	>256 µg/mL	>256 µg/mL	9 fold	early apoptotic cells	–	–	>256 µg/mL	3.14 ± 0.31 µM	10 µM	9.1	10	IC50 [1, 13]: 102 ± 1.11 µM; IC50 [4, 14]: 106 ± 2.31 µM; MIC and GI50 ratios of cytotoxic to trypanocidal activities [12]: 7–13; IC50 [9, 15]: 54.2 ± 2.71 µM; IC50 [10, 16]: 56 ± 2.07 µM
Nc1ncnc2c1ncn2CCC(O)[C]12[CH]3[CH]4[CH]5[CH]1[Mn]45321[P](c2ccccc2)(c2ccccc2)CC[P]1(c1ccccc1)c1ccccc1.[C-]#[O+] (racemic) [Compound C]	104 ± 1.19 µM	>128 µg/mL	greatest autophagic changes	66.6 ± 3.33 µM	32 µg/mL	32 µg/mL	32 µg/mL	9 fold	early apoptotic cells	38.3 ± 1.91 µM	43.1 ± 1.95 µM	16 µg/mL	–	–	–	–	–
COC(CCn1cc(F)c(=O)n(C)c1=O)[C]12[CH]3[CH]4[CH]5[CH]1[Mn]4532.[C-]#[O+].[C-]#[O+].[C-]#[O+] (racemic) [Compound 4]	> 150 µM	>512 µg/mL	Less induction of autophagy	> 150 µM	>512 µg/mL	>512 µg/mL	>512 µg/mL	only a three-fold increase	–	> 150 µM	> 150 µM	>512 µg/mL	29.6 ± 6.8 µM	100 µM	>3.4	>1	–
COC(CCn1cnc2c(N(C)C)ncnc21)[C]12[CH]3[CH]4[CH]5[CH]1[Mn]4532.[C-]#[O+].[C-]#[O+].[C-]#[O+] (racemic) [Compound 6]	111 ± 3.57 µM	>512 µg/mL	greatest autophagic changes	86.9 ± 2.34 µM	>512 µg/mL	>512 µg/mL	>512 µg/mL	6 fold	–	131 ± 3.53 µM	> 150 µM	>512 µg/mL	26.1 ± 1.9 µM	100 µM	3.6	>1	–
